Measurements reported in PubChem BioAssay AID330 (DTP/NCI, 2004).
Several values for one entry are separate records, joined by “and”; a condition that tells them apart may be missing. Identical values can stand only once. Toxic doses and inconclusive results are not listed.

Tested on: P388 leukemia ip, CD2F1 mice, survival T/C
Assay: NCI In Vivo Anticancer Drug Screen. Data for tumor model P388 Leukemia (intraperitoneal) in CD2F1 (CDF1) mice
Conditions: endpoint: median survival time, higher = longer survival
How it was run: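 Mice carrying the transplanted tumor received test compound or vehicle. Survival was recorded in each group, and the value is the treated-group measurement divided by that of the vehicle-treated control group.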

[1] = dose: 200.0 mg/kg/injection, schedule: Q04DX003 (ip), vehicle: saline with Tween-80
[2] = dose: 50.0 mg/kg/injection, schedule: Q01DX005 (ip), vehicle: Klucel (hydroxypropylcellulose) (HPC)
[3] = dose: 100.0 mg/kg/injection, schedule: Q01DX005 (ip), vehicle: Klucel (hydroxypropylcellulose) (HPC)
[4] = dose: 200.0 mg/kg/injection, schedule: Q01DX005 (ip), vehicle: Klucel (hydroxypropylcellulose) (HPC)
[5] = dose: 60.0 mg/kg/injection, schedule: Q01DX005 (ip), vehicle: saline with Tween-80
[6] = dose: 120.0 mg/kg/injection, schedule: Q01DX005 (ip), vehicle: saline with Tween-80
[7] = dose: 240.0 mg/kg/injection, schedule: Q01DX005 (ip), vehicle: saline with Tween-80

For C/C=C/C=C/c1cc2cc3c(c(O)c2c(=O)[nH]1)C1(CC3)C(O)=c2c(=O)c3c(=O)cc(OC)c(=O)c=3c(=O)c2=C1O (stereo unspecified), the T/C (dose: 0.12 mg/kg/injection, schedule: Q01DX009 (ip), vehicle: other) was 116 % of control, the T/C (dose: 0.25 mg/kg/injection, schedule: Q01DX009 (ip), vehicle: other) was 118 % of control and the T/C (dose: 0.5 mg/kg/injection, schedule: Q01DX009 (ip), vehicle: other) was 87 % of control and 100 % of control. For the same molecule, the T/C (dose: 0.75 mg/kg/injection, schedule: Q01DX009 (ip), vehicle: Klucel (hydroxypropylcellulose) (HPC)) was 98 % of control, the T/C (dose: 1.0 mg/kg/injection, schedule: Q01DX009 (ip), vehicle: other) was 113 % of control and the T/C (dose: 1.5 mg/kg/injection, schedule: Q01DX009 (ip), vehicle: Klucel (hydroxypropylcellulose) (HPC)) was 99 % of control. For the same molecule, the T/C (dose: 1.5 mg/kg/injection, schedule: Q01DX009 (ip), vehicle: saline with Tween-80) was 112 % of control, the T/C (dose: 6.0 mg/kg/injection, schedule: Q01DX009 (ip), vehicle: Klucel (hydroxypropylcellulose) (HPC)) was 156 % of control and the T/C (dose: 8.0 mg/kg/injection, schedule: Q01DX009 (ip), vehicle: other) was 123 % of control. The T/C (dose: 12.0 mg/kg/injection, schedule: Q01DX009 (ip), vehicle: Klucel (hydroxypropylcellulose) (HPC)) was 192 % of control, the T/C (dose: 12.0 mg/kg/injection, schedule: Q01DX009 (ip), vehicle: saline with Tween-80) was 87 % of control and the T/C (dose: 63.0 micrograms/kg/injection, schedule: Q01DX009 (ip), vehicle: other) was 101 % of control. The T/C (dose: 63.0 micrograms/kg/injection, schedule: Q01DX009 (ip), vehicle: water) was 101 % of control and 110 % of control, the T/C (dose: 125.0 micrograms/kg/injection, schedule: Q01DX009 (ip), vehicle: other) was 99 % of control and the T/C (dose: 125.0 micrograms/kg/injection, schedule: Q01DX009 (ip), vehicle: water) was 112 % of control and 119 % of control. The T/C (dose: 250.0 micrograms/kg/injection, schedule: Q01DX009 (ip), vehicle: other) was 102 % of control, the T/C (dose: 250.0 micrograms/kg/injection, schedule: Q01DX009 (ip), vehicle: water) was 119 % of control and 120 % of control and the T/C (dose: 500.0 micrograms/kg/injection, schedule: Q01DX009 (ip), vehicle: other) was 114 % of control. For the same molecule, the T/C (dose: 500.0 micrograms/kg/injection, schedule: Q01DX009 (ip), vehicle: water) was 153 % of control, the T/C (dose: 1000.0 micrograms/kg/injection, schedule: Q01DX009 (ip), vehicle: other) was 115 % of control and the T/C (dose: 1000.0 micrograms/kg/injection, schedule: Q01DX009 (ip), vehicle: water) was 160 % of control and 178 % of control. For the same molecule, the T/C (dose: 2000.0 micrograms/kg/injection, schedule: Q01DX009 (ip), vehicle: water) was 175 % of control.
For CC1C(=O)OC2CCN3CC4OC4(COC(=O)C(C)(O)C1(C)O)C23 (stereo unspecified), the T/C (dose: 132.0 mg/kg/injection, schedule: Q04DX003 (ip), vehicle: saline with Tween-80) was 90 % of control, the T/C [1] was 110 % of control and the T/C (dose: 300.0 mg/kg/injection, schedule: Q04DX003 (ip), vehicle: saline with Tween-80) was 100 % of control.
With COc1cc(C2c3cc4c(cc3[C@@H](OC3OC5CO[C@@H](C)OC5C(O)C3O)[C@H]3COC(=O)C23)OCO4)cc(OC)c1OC (stereo partly specified) the T/C (dose: 16.0 mg/kg/injection, schedule: Q01DX005 (ip), vehicle: saline) was 163 % of control, the T/C (dose: 32.0 mg/kg/injection, schedule: Q01DX005 (ip), vehicle: saline) was 166 % of control and the T/C (dose: 64.0 mg/kg/injection, schedule: Q01DX005 (ip), vehicle: saline) was 153 % of control.
In the case of O=C(O)Cc1ccc([N+](=O)[O-])cc1[N+](=O)[O-], the T/C (dose: 12.5 mg/kg/injection, schedule: Q01DX009 (ip), vehicle: saline) is reported as 100 % of control, the T/C (dose: 25.0 mg/kg/injection, schedule: Q01DX009 (ip), vehicle: saline) is reported as 92 % of control and the T/C (dose: 50.0 mg/kg/injection, schedule: Q01DX009 (ip), vehicle: saline) is reported as 100 % of control. The T/C (dose: 100.0 mg/kg/injection, schedule: Q01DX009 (ip), vehicle: saline) was 91 % of control.
For COc1cc2c(c(OC)c1OC)-c1ccc(=O)c(OC)cc1[C@@H](NC(=O)C(F)(F)F)CC2, the T/C (dose: 2.5 mg/kg/injection, schedule: Q01DX009 (ip), vehicle: Klucel (hydroxypropylcellulose) (HPC)) was 105 % of control, the T/C (dose: 5.0 mg/kg/injection, schedule: Q01DX009 (ip), vehicle: Klucel (hydroxypropylcellulose) (HPC)) was 97 % of control and the T/C (dose: 10.0 mg/kg/injection, schedule: Q01DX009 (ip), vehicle: Klucel (hydroxypropylcellulose) (HPC)) was 96 % of control. For the same molecule, the T/C (dose: 20.0 mg/kg/injection, schedule: Q01DX009 (ip), vehicle: Klucel (hydroxypropylcellulose) (HPC)) was 105 % of control and the T/C (dose: 40.0 mg/kg/injection, schedule: Q01DX009 (ip), vehicle: Klucel (hydroxypropylcellulose) (HPC)) was 102 % of control.
With C[C@H]1CC[C@@H]2O[C@@]23C(=O)OC2OC(C)(C)[C@@H]([C@H]2O)[C@]13C the T/C [2] was 102 % of control, the T/C [3] was 96 % of control and the T/C [4] was 107 % of control.
O=C(Nc1cnns1)c1ccccc1 was tested, and the T/C (dose: 12.5 mg/kg/injection, schedule: Q01DX009 (ip), vehicle: other) was 105 % of control, the T/C (dose: 25.0 mg/kg/injection, schedule: Q01DX009 (ip), vehicle: other) was 99 % of control and the T/C (dose: 50.0 mg/kg/injection, schedule: Q01DX009 (ip), vehicle: other) was 102 % of control. For the same molecule, the T/C (dose: 100.0 mg/kg/injection, schedule: Q01DX009 (ip), vehicle: other) was 105 % of control and the T/C (dose: 200.0 mg/kg/injection, schedule: Q01DX009 (ip), vehicle: other) was 89 % of control.
In the case of O=c1c2ccc(Cl)cc2nc2nc(-c3ccccc3)c3cc(Cl)ccc3n12, the T/C [5] is reported as 107 % of control, the T/C [6] is reported as 106 % of control and the T/C [7] is reported as 97 % of control.
For N#CCc1c(-c2ccccc2)c(-c2ccccc2)c2n1CCC2, the T/C [2] was 98 % of control, the T/C [3] was 99 % of control and the T/C [4] was 96 % of control.
In the case of CC1(C)N=C(N)N=C(N)N1c1cccc(CC(=O)Nc2ccc(S(=O)(=O)F)cc2)c1, the T/C [1] is reported as 122 % of control.
For CC1(C)N=C(N)N=C(N)N1c1ccc(OCC(=O)N2CCOCC2)cc1, the T/C (dose: 50.0 mg/kg/injection, schedule: Q04DX003 (ip), vehicle: saline) was 100 % of control, the T/C (dose: 66.0 mg/kg/injection, schedule: Q01DX009 (ip), vehicle: saline sonified) was 110 % of control and the T/C (dose: 100.0 mg/kg/injection, schedule: Q01DX009 (ip), vehicle: saline sonified) was 120 % of control. For the same molecule, the T/C (dose: 100.0 mg/kg/injection, schedule: Q04DX003 (ip), vehicle: saline) was 95 % of control.
For C=CC(/C=C\c1ccc(OC2OC(CO)C(O)C(O)C2O)cc1)c1ccc(OC2OC(CO)C(O)C(O)C2O)cc1 (stereo unspecified), the T/C (dose: 60.0 mg/kg/injection, schedule: Q01DX005 (ip), vehicle: saline) was 97 % of control, the T/C (dose: 120.0 mg/kg/injection, schedule: Q01DX005 (ip), vehicle: saline) was 103 % of control and the T/C (dose: 240.0 mg/kg/injection, schedule: Q01DX005 (ip), vehicle: saline) was 92 % of control.
For COC(=O)[C@@]1(O)CC(OC)=CC1=O, the T/C (dose: 5.0 mg/kg/injection, schedule: Q01DX005 (ip), vehicle: Klucel (hydroxypropylcellulose) (HPC)) was 93 % of control, the T/C (dose: 10.0 mg/kg/injection, schedule: Q01DX005 (ip), vehicle: Klucel (hydroxypropylcellulose) (HPC)) was 95 % of control and the T/C (dose: 20.0 mg/kg/injection, schedule: Q01DX005 (ip), vehicle: Klucel (hydroxypropylcellulose) (HPC)) was 100 % of control. The T/C (dose: 40.0 mg/kg/injection, schedule: Q01DX005 (ip), vehicle: Klucel (hydroxypropylcellulose) (HPC)) was 93 % of control and the T/C (dose: 80.0 mg/kg/injection, schedule: Q01DX005 (ip), vehicle: Klucel (hydroxypropylcellulose) (HPC)) was 98 % of control.
For O=P(OCCCl)(OCCCl)C(Nc1cccc2ccccc12)c1ccc(N(CCCl)CCCl)cc1 (stereo unspecified), the T/C [5] was 98 % of control, the T/C [6] was 95 % of control and the T/C [7] was 99 % of control.
For CC(C)OC1=C2CCCCC2=[N+]2CCc3ccccc3C2C1 (stereo unspecified), the T/C (dose: 6.25 mg/kg/injection, schedule: Q04DX003 (ip), vehicle: saline with Tween-80) was 107 % of control, the T/C (dose: 12.5 mg/kg/injection, schedule: Q04DX003 (ip), vehicle: saline with Tween-80) was 107 % of control and the T/C (dose: 25.0 mg/kg/injection, schedule: Q04DX003 (ip), vehicle: saline with Tween-80) was 99 % of control.
In the case of ClCCN(CCCl)c1ccc(N=Cc2ccccc2)cc1, the T/C (dose: 1.56 mg/kg/injection, schedule: Q01DX009 (ip), vehicle: saline with Tween-80) is reported as 159 % of control and 167 % of control, the T/C (dose: 3.12 mg/kg/injection, schedule: Q01DX009 (ip), vehicle: saline with Tween-80) is reported as 179 % of control and 205 % of control and the T/C (dose: 6.25 mg/kg/injection, schedule: Q01DX009 (ip), vehicle: saline with Tween-80) is reported as 230 % of control.
O=[N+]([O-])c1cn(CCCNc2c3ccccc3nc3ccccc23)cn1 was tested, and the T/C [5] was 95 % of control, the T/C [6] was 107 % of control and the T/C [7] was 112 % of control.
